Our source for the IC50 and inhibition values is ChEMBL document CHEMBL4828735, “Discovery of N-((3S,4S)-4-(3,4-Difluorophenyl)piperidin-3-yl)-2-fluoro-4-(1-methyl-1H-pyrazol-5-yl)benzamide (Hu7691), a Potent and Selective Akt Inhibitor That Enables Decrease of Cutaneous Toxicity” (J Med Chem, 2021).

For one data set, the system named is HGC-27. In words: Antiproliferative activity against human HGC-27 cells assessed as inhibition of cell growth incubated for 72 hrs by SRB assay. It counts as functional, cell-based. As to conditions: HGC-27, 72 h. A general note: Sulforhodamine B stains cellular protein and so reports cell mass.
Another data set concerns 786-0. The data set is described as follows: Antiproliferative activity against human 786-0 cells assessed as inhibition of cell growth incubated for 72 hrs by SRB assay. It counts as functional, cell-based. As to conditions: 786-0, 72 h.
The subject of the next data set is KHOS/NP. In words: Antiproliferative activity against human KHOS cells assessed as inhibition of cell growth incubated for 72 hrs by SRB assay. It counts as functional, cell-based.
The target of data set [1] is RAC-alpha serine/threonine-protein kinase (Homo sapiens, UniProt P31749). In words: Inhibition of N-terminal GST-tagged human AKT1 (104 to 408 residues) expressed in baculovirus infected Sf21 cells incubated for 1 hr in presence of ATP by mobility shift assay.
Another data set concerns the target hERG (KCNH2) (Homo sapiens, UniProt Q12809). In words: Inhibition of human ERG expressed in HEK293 cells at 3 uM by whole cell patch clamp method relative to control. It counts as cell-based. The conditions noted are these: HEK293 cells expressing hERG. In general terms: In patch-clamp work, channel activity is measured electrically.
The test system of the next data set is HaCaT. In words: Antiproliferative activity against human HaCaT cells assessed as inhibition of cell growth incubated for 72 hrs by SRB assay. It counts as cell-based.

Sequence of RAC-alpha serine/threonine-protein kinase (P31749 whole entry, the tested form may be a part): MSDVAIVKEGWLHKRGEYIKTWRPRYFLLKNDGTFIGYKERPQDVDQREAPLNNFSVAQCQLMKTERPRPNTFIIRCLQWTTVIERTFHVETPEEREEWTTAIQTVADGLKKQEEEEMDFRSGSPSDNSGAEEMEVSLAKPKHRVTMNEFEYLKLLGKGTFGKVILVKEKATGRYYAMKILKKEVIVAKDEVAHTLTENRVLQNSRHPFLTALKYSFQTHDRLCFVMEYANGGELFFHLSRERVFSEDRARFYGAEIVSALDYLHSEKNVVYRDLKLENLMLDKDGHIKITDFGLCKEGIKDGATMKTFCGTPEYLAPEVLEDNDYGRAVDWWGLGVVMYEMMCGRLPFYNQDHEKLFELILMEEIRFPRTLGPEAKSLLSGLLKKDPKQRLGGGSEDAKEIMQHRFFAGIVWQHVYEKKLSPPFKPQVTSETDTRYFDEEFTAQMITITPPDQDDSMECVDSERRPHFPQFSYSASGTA
Sequence of hERG (KCNH2) (Q12809 whole entry): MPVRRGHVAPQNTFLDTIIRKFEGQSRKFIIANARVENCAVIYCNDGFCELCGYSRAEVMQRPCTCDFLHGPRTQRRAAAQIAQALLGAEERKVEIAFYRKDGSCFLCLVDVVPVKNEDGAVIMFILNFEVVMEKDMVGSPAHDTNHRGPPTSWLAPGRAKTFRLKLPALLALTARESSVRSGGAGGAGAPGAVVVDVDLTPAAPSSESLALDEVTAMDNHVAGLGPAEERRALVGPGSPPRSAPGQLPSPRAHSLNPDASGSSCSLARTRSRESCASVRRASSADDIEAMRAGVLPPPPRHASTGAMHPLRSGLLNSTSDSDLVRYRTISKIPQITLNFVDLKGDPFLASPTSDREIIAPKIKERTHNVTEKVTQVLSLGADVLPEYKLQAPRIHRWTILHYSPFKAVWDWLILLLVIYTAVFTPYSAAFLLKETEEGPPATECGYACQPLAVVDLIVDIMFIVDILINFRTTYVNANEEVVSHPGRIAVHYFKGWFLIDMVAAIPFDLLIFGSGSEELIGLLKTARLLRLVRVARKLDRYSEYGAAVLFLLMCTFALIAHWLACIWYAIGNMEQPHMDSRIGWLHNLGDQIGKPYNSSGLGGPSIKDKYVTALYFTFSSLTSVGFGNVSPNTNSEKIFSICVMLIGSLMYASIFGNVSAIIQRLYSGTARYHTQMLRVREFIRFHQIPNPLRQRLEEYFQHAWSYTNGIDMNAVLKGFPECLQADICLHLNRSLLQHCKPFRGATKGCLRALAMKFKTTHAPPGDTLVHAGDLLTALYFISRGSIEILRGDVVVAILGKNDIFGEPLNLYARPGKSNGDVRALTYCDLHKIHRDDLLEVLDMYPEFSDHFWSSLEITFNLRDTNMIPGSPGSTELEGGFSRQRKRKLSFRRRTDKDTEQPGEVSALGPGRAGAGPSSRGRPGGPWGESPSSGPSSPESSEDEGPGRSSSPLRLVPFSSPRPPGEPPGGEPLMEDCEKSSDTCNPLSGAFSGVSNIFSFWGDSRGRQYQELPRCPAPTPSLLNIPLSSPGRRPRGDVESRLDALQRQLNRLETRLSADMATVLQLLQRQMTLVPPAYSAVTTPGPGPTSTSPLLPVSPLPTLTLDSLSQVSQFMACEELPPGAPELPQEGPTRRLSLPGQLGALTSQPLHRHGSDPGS

What is called IC50 is the concentration that gives 50% inhibition. Regarding `Cn1ncc(Br)c1-c1cc(F)c(C(=O)N[C@@H]2CNCC[C@H]2c2ccc(F)c(F)c2)c(F)c1`, the IC50 in the data set with HGC-27 is 2.9 µM; in the data set on 786-0, 3.56 µM; with KHOS/NP, 5.01 µM; in data set [1] it was 0.0957 µM.
The corresponding values for `CCn1nccc1-c1ccc(C(=O)N[C@@H]2CNCC[C@H]2c2ccc(F)c(F)c2)c(F)c1` are 3.57 µM, 5.2 µM, 5.46 µM and 0.176 µM.
The corresponding values for `Cn1nccc1-c1cc(F)c(C(=O)N[C@@H]2CNCC[C@H]2c2ccc(F)cc2)cc1F` are 3.36 µM, 7.81 µM, 17.6 µM and 0.0353 µM.
As a reminder, the inhibition is the share of the control response that was lost under treatment. The low end stands for a weak effect, the high end for a strong effect. Consider `Cn1nccc1-c1ccc(C(=O)N[C@@H]2CNCC[C@H]2c2cc(F)cc(F)c2)cc1F`, for which the IC50 turned out to be 0.15 µM in the data set with HGC-27, 1.01 µM in the data set on 786-0, 7.27 µM in the data set on KHOS/NP and 0.0018 µM in data set [1]. The compound also had an inhibition at 3 µM against hERG (KCNH2) of 26.4%.
For `Cn1nccc1-c1cc(F)c(C(=O)N[C@@H]2CNCC[C@H]2c2ccc(F)c(F)c2)c(F)c1`, the IC50 turned out to be 4.59 µM with HGC-27, 7.99 µM with 786-0, 15.4 µM in the data set on KHOS/NP and 0.0263 µM in data set [1].
As to `O=C(N[C@@H]1CNCC[C@H]1c1ccc(F)c(F)c1)c1ccc(-c2ccn[nH]2)cc1F`, the IC50 in the data set with HGC-27 came to 4.34 µM; with 786-0, 7.15 µM; with KHOS/NP it was 10.7 µM; in data set [1] it was 0.083 µM.
As for `Cn1ncc(Cl)c1-c1cc(F)c(C(=O)N[C@@H]2CNCC[C@H]2c2ccc(F)c(F)c2)c(Cl)c1`, the IC50 in the data set with HGC-27 was determined as 3.06 µM; in the data set with 786-0, 3.17 µM; in the data set with KHOS/NP it was 3.67 µM; in data set [1] it was 0.142 µM.
For the compound `Cn1ncc(Cl)c1-c1cc(F)c(C(=O)N[C@@H]2CNCC[C@H]2c2ccc(F)c(F)c2)c(F)c1`, the IC50 with HGC-27 turned out to be 4.86 µM; in the data set on 786-0, 4.28 µM; in the data set with KHOS/NP, 4.46 µM; in data set [1] it was 0.0971 µM.
Taken in the same sequence, the figures for `Cn1nccc1-c1cc(F)c(C(=O)N[C@@H]2CNCC[C@H]2c2ccc(F)c(F)c2)c(Cl)c1` were 1.7 µM, 2.2 µM, 3.89 µM and 0.047 µM.
Taken in the same sequence, the figures for `Cn1ncc(Br)c1-c1cc(F)c(C(=O)N[C@@H]2CNCC[C@H]2c2ccc(F)c(F)c2)cc1F` were 1.79 µM, 1.9 µM, 3.06 µM and 0.0662 µM.
As for `Cn1nccc1-c1ccc(C(=O)N[C@@H]2CNCC[C@H]2c2ccc(F)c(F)c2)cc1`, the IC50 in the data set on HaCaT was found to be 5.44 µM.
With `Cn1nccc1-c1ccc(C(=O)N[C@@H]2CNCC[C@H]2c2ccc(F)c(F)c2)cc1F`, the IC50 in the data set with HGC-27 was determined as 0.18 µM; in the data set on 786-0, 0.95 µM; in the data set on KHOS/NP it was 7.43 µM; in data set [1], 0.0027 µM. Also, on hERG (KCNH2), the inhibition at 3 µM stood at 10.7%.
Regarding `Cn1ncc(Br)c1-c1cc(F)c(C(=O)N[C@@H]2CNCC[C@H]2c2ccc(F)c(F)c2)c(Cl)c1`, the IC50 in the data set with HGC-27 is 3.28 µM; with 786-0, 3.21 µM; with KHOS/NP, 3.61 µM; in data set [1] it was 0.137 µM.
The corresponding values for `Cn1nccc1-c1cc(F)c(C(=O)N[C@@H]2CNCC[C@H]2c2ccc(F)cc2)c(F)c1` are 7.27 µM, 25.5 µM, 29.1 µM and 0.107 µM.
As for `Cn1nccc1-c1ccc(C(=O)N[C@@H]2CNCC[C@H]2c2cc(F)cc(F)c2)c(F)c1`, the IC50 in the data set on HGC-27 came out at 0.51 µM; in the data set on 786-0 it was 2.22 µM; in the data set on KHOS/NP it was 17.1 µM; in data set [1], 0.0046 µM. Moreover, the inhibition at 3 µM against hERG (KCNH2) was 6.4%.
Consider `Cn1nccc1-c1ccc(C(=O)N[C@@H]2CNCC[C@H]2c2ccc(F)c(F)c2)c(Cl)c1`, for which the IC50 in the data set with HGC-27 is 1.4 µM; in the data set with 786-0 it was 4.07 µM; with KHOS/NP, 11.7 µM; in data set [1] it was 0.024 µM.
On to `Cn1nccc1-c1ccc(C(=O)N[C@@H]2CNCC[C@H]2c2cc(F)cc(F)c2)c(Cl)c1`, for which the IC50 with HGC-27 is 1.24 µM; in the data set on 786-0, 3.79 µM; in the data set with KHOS/NP it was 11.8 µM; in data set [1], 0.015 µM.
For `Cn1ncc(Cl)c1-c1cc(F)c(C(=O)N[C@@H]2CNCC[C@H]2c2ccc(F)c(F)c2)cc1F`, the IC50 in data set [1] was determined as 0.0489 µM.
For `Cn1nccc1-c1cc(F)c(C(=O)N[C@@H]2CNCC[C@H]2c2ccc(F)c(F)c2)cc1F`, the IC50 in the data set with HGC-27 turned out to be 1.45 µM; in the data set on 786-0, 5.05 µM; in the data set with KHOS/NP it was 18.4 µM; in data set [1] it was 0.0092 µM. The same compound registered an inhibition at 3 µM against hERG (KCNH2) of 27.2%.
